Test results from patent publication US11180462B2, “Microbiocidal oxadiazole derivatives” (SYNGENTA PARTICIPATIONS AG, priority 2015, dated 2021).

Experiments:
[1] = test system: Puccinia recondita f. Sp. Tritici; test: Fungicidal activity against Puccinia recondita f. sp. tritici / wheat / leaf disc curative (brown rust); type: in vivo; conditions: foliar, 24 h, 200 ppm in the applied formulation, wheat leaf segments, curative (applied 1 day after inoculation), compared to untreated control leaf disks, read-out: disease control
Method in brief: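 Curative test on wheat leaf segments (cv. Kanzler) on agar, inoculated with spore suspension and held dark at 19° C, 75% RH; formulated compound in water applied 1 day after inoculation. Incubated at 19° C, 75% RH, 12 h light/12 h dark; percent disease control versus untreated scored 6 to 8 days after application.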

Phakopsora Pachyrhizi = test: Fungicidal activity against Phakopsora pachyrhizi / soybean / leaf disc preventative (Asian soybean rust); type: in vivo; conditions: foliar, 200 ppm in the applied formulation, soybean leaf disks, compared to untreated control leaf disks, read-out: disease control
Method in brief: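 Preventative soybean leaf-disc test: discs on water agar sprayed with diluted formulated compound, inoculated one day later with spores on the lower surface. Held 24–36 h dark at 20°C, 75% rh, then 12 h light/day; percent disease control versus untreated discs scored 12–14 days after application.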

[2] = test system: Puccinia recondita f. Sp. Tritici; test: Fungicidal activity against Puccinia recondita f. sp. tritici / wheat / leaf disc preventative (brown rust); type: in vivo; conditions: foliar, 200 ppm in the applied formulation, wheat leaf segments, preventative, compared to untreated control leaf disks, read-out: disease control
Method in brief: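 Compound application precedes infection: segments of wheat cv. Kanzler, sprayed at 200 ppm, are inoculated with a spore suspension after 1 day. Incubation is at 19° C. with 75% relative humidity and 12 h light/12 h darkness, and control versus untreated leaves is rated 7 to 9 days post-application.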

[3] = test system: Glomerella lagenarium (Colletotrichum lagenarium); test: Fungicidal activity against Glomerella lagenarium (Colletotrichum lagenarium) liquid culture / cucumber / preventative (anthracnose); type: cell-based; conditions: Colletotrichum orbiculare; 20 ppm in the applied formulation; liquid culture (PDB), growth inhibition measured photometrically after 3 to 4 days; compared to untreated control; read-out: disease control
Method in brief: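 Photometric read-out of fungal growth after 2–7 days, expressed as percent antifungal activity versus untreated check. Cryo-stored conidia in PDB; compound at 20 ppm; dark, 24 °C, 96% RH.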

CCC(C)N(Cc1ccc(-c2noc(C(F)(F)F)n2)cc1)C(=O)C1CCCO1 (centres unmarked) [Compound 1.398, N-sec-butyl-N-[[4-[5-(trifluoromethyl)-1,2,4-oxadiazol-3-yl]phenyl]methyl]-tetrahydrofuran-2-carboxamide]
≥ 80%: pest or weed control at 200 ppm [1] | pest or weed control at 200 ppm (Phakopsora Pachyrhizi) | pest or weed control at 200 ppm [2] | inhibition of growth at 20 ppm [3]

CN(Cc1ccc(-c2noc(C(F)(F)F)n2)cc1)C(=O)C1OCCO1 [Compound 1.531, N-methyl-N-[[4-[5-(trifluoromethyl)-1,2,4-oxadiazol-3-yl]phenyl]methyl]-1,3-dioxolane-2-carboxamide]
≥ 80%: pest or weed control at 200 ppm [1] | pest or weed control at 200 ppm (Phakopsora Pachyrhizi) | pest or weed control at 200 ppm [2] | inhibition of growth at 20 ppm [3]

CCCN(Cc1ccc(-c2noc(C(F)(F)F)n2)cc1)C(=O)C(C)CC (centres unmarked) [Compound 1.659, 2-methyl-N-propyl-N-[[4-[5-(trifluoromethyl)-1,2,4-oxadiazol-3-yl]phenyl]methyl]-butanamide]
≥ 80%: pest or weed control at 200 ppm [1] | pest or weed control at 200 ppm (Phakopsora Pachyrhizi) | pest or weed control at 200 ppm [2] | inhibition of growth at 20 ppm [3]

CCOCC(=O)N(OC)C(C)c1ccc(-c2noc(C(F)(F)F)n2)cc1 (centres unmarked) [Compound 1.264, 2-ethoxy-N-methoxy-N-[1-[4-[5-(trifluoromethyl)-1,2,4-oxadiazol-3-yl]phenyl]ethyl]-acetamide]
≥ 80%: pest or weed control at 200 ppm [1] | pest or weed control at 200 ppm (Phakopsora Pachyrhizi) | pest or weed control at 200 ppm [2] | inhibition of growth at 20 ppm [3]

CON(Cc1ccc(-c2noc(C(F)(F)F)n2)cc1)C(=O)C(C)C [Compound 1.12, N-methoxy-2-methyl-N-[[4-[5-(trifluoromethyl)-1,2,4-oxadiazol-3-yl]phenyl]methyl]-propanamide]
≥ 80%: pest or weed control at 200 ppm [1] | pest or weed control at 200 ppm (Phakopsora Pachyrhizi) | pest or weed control at 200 ppm [2] | inhibition of growth at 20 ppm [3]

CON(Cc1ccc(-c2noc(C(F)(F)F)n2)cc1)C(=O)C1(C(F)(F)F)CC1 [Compound 1.6, N-methoxy-1-(trifluoromethyl)-N-[[4-[5-(trifluoromethyl)-1,2,4-oxadiazol-3-yl]phenyl]methyl]-cyclopropane-carboxamide]
≥ 80%: pest or weed control at 200 ppm [1] | pest or weed control at 200 ppm (Phakopsora Pachyrhizi) | pest or weed control at 200 ppm [2] | inhibition of growth at 20 ppm [3]

CC1(C(=O)N(Cc2ccc(-c3noc(C(F)(F)F)n3)cc2)CC(F)(F)F)CC1 [Compound 1.696, 1-methyl-N-(2,2,2-trifluoroethyl)-N-[[4-[5-(trifluoromethyl)-1,2,4-oxadiazol-3-yl]phenyl]methyl]-cyclopropane-carboxamide]
≥ 80%: pest or weed control at 200 ppm [1] | pest or weed control at 200 ppm (Phakopsora Pachyrhizi) | pest or weed control at 200 ppm [2] | inhibition of growth at 20 ppm [3]

CN(C)C(=O)N(Cc1ccc(-c2noc(C(F)(F)F)n2)cc1)CC(F)(F)F [Compound 3.26, 1,1-dimethyl-3-(2,2,2-trifluoroethyl)-3-[[4-[5-(trifluoromethyl)-1,2,4-oxadiazol-3-yl]phenyl]methyl]urea]
≥ 80%: pest or weed control at 200 ppm [1] | pest or weed control at 200 ppm (Phakopsora Pachyrhizi) | pest or weed control at 200 ppm [2] | inhibition of growth at 20 ppm [3]

C#CCN(Cc1ccc(-c2noc(C(F)(F)F)n2)cc1)C(=O)CCCOC [Compound 1.196, 4-methoxy-N-prop-2-ynyl-N-[[4-[5-(trifluoromethyl)-1,2,4-oxadiazol-3-yl]phenyl]methyl]-butanamide]
≥ 80%: pest or weed control at 200 ppm [1] | pest or weed control at 200 ppm (Phakopsora Pachyrhizi) | pest or weed control at 200 ppm [2] | inhibition of growth at 20 ppm [3]

COCCNC(=O)N(Cc1ccc(-c2noc(C(F)(F)F)n2)cc1)OC [Compound 3.2, 1-methoxy-3-(2-methoxyethyl)-1-[[4-[5-(trifluoromethyl)-1,2,4-oxadiazol-3-yl]phenyl]methyl]-urea]
≥ 80%: pest or weed control at 200 ppm [1] | pest or weed control at 200 ppm (Phakopsora Pachyrhizi) | pest or weed control at 200 ppm [2] | inhibition of growth at 20 ppm [3]

O=C(C1CC1(F)F)N(Cc1ccc(-c2noc(C(F)(F)F)n2)cc1)CC(F)(F)F (centres unmarked) [Compound 1.690, 2,2-difluoro-N-(2,2,2-trifluoroethyl)-N-[[4-[5-(trifluoromethyl)-1,2,4-oxadiazol-3-yl]phenyl]methyl]-cyclopropane-carboxamide]
≥ 80%: pest or weed control at 200 ppm [1] | pest or weed control at 200 ppm (Phakopsora Pachyrhizi) | pest or weed control at 200 ppm [2] | inhibition of growth at 20 ppm [3]

CCCNC(=O)N(Cc1ccc(-c2noc(C(F)(F)F)n2)cc1)OC [Compound 3.21, 1-methoxy-3-propyl-1-[[4-[5 - (trifluoromethyl)-1,2,4-oxadiazol-3-yl]phenyl]methyl]urea]
≥ 80%: pest or weed control at 200 ppm [1] | pest or weed control at 200 ppm (Phakopsora Pachyrhizi) | pest or weed control at 200 ppm [2] | inhibition of growth at 20 ppm [3]

CCCN(Cc1ccc(-c2noc(C(F)(F)F)n2)cc1)C(=O)CC1CC1 [Compound 1.669, 2-cyclopropyl-N-propyl-N-[[4-[5-(trifluoromethyl)-1,2,4-oxadiazol-3-yl]phenyl]methyl]-acetamide]
≥ 80%: pest or weed control at 200 ppm [1] | pest or weed control at 200 ppm (Phakopsora Pachyrhizi) | pest or weed control at 200 ppm [2] | inhibition of growth at 20 ppm [3]

CCC(C)C(=O)N(CC)Cc1ccc(-c2noc(C(F)(F)F)n2)cc1 (centres unmarked) [Compound 1.506, N-ethyl-2-methyl-N-[[4-[5-(trifluoromethyl)-1,2,4-oxadiazol-3-yl]phenyl]methyl]-butanamide]
≥ 80%: pest or weed control at 200 ppm [1] | pest or weed control at 200 ppm (Phakopsora Pachyrhizi) | pest or weed control at 200 ppm [2] | inhibition of growth at 20 ppm [3]

COCCC(=O)N(Cc1ccc(-c2noc(C(F)(F)F)n2)cc1)C(C)C [Compound 1.674, N-isopropyl-3-methoxy-N-[[4-[5-(trifluoromethyl)-1,2,4-oxadiazol-3-yl]phenyl]methyl]-propanamide]
≥ 80%: pest or weed control at 200 ppm [1] | pest or weed control at 200 ppm (Phakopsora Pachyrhizi) | pest or weed control at 200 ppm [2] | inhibition of growth at 20 ppm [3]

CCCN(Cc1ccc(-c2noc(C(F)(F)F)n2)cc1)C(=O)C1CC1(F)F (centres unmarked) [Compound 1.652, 2,2-difluoro-N-propyl-N-[[4-[5-(trifluoromethyl)-1,2,4-oxadiazol-3-yl]phenyl]methyl]-cyclopropane-carboxamide]
≥ 80%: pest or weed control at 200 ppm [1] | pest or weed control at 200 ppm (Phakopsora Pachyrhizi) | pest or weed control at 200 ppm [2] | inhibition of growth at 20 ppm [3]

CCCN(Cc1ccc(-c2noc(C(F)(F)F)n2)cc1)C(=O)C(C)OC (centres unmarked) [Compound 1.666, 2-methoxy-N-propyl-N-[[4-[5-(trifluoromethyl)-1,2,4-oxadiazol-3-yl]phenyl]methyl]-propanamide]
≥ 80%: pest or weed control at 200 ppm [1] | pest or weed control at 200 ppm (Phakopsora Pachyrhizi) | pest or weed control at 200 ppm [2] | inhibition of growth at 20 ppm [3]

CON(Cc1ccc(-c2noc(C(F)(F)F)n2)cc1)C(=O)CO [Compound 1.778, 2-hydroxy-N-methoxy-N-[[4-[5-(trifluoromethyl)-1,2,4-oxadiazol-3-yl]phenyl]methyl]-acetamide]
≥ 80%: pest or weed control at 200 ppm [1] | pest or weed control at 200 ppm (Phakopsora Pachyrhizi) | pest or weed control at 200 ppm [2] | inhibition of growth at 20 ppm [3]

CON(C)C(=O)N(Cc1ccc(-c2noc(C(F)(F)F)n2)cc1)CC(F)(F)F [Compound 3.25, 1-methoxy-1-methyl-3-(2,2,2-trifluoroethyl)-3-[[4-[5-(trifluoromethyl)-1,2,4-oxadiazol-3-yl]phenyl]methyl]urea]
≥ 80%: pest or weed control at 200 ppm [1] | pest or weed control at 200 ppm (Phakopsora Pachyrhizi) | pest or weed control at 200 ppm [2] | inhibition of growth at 20 ppm [3]

CCC(=O)N(Cc1ccc(-c2noc(C(F)(F)F)n2)cc1)CC1CC1 [Compound 1.227, N-(cyclopropylmethyl)-N-[[4-[5-(trifluoromethyl)-1,2,4-oxadiazol-3-yl]phenyl]methyl]-propanamide]
≥ 80%: pest or weed control at 200 ppm [1] | pest or weed control at 200 ppm (Phakopsora Pachyrhizi) | pest or weed control at 200 ppm [2] | inhibition of growth at 20 ppm [3]
